Reference: US20170000740A9, “COMBINATION THERAPEUTIC NANOPARTICLES” (UNIVERSITY OF GEORGIA RESEARCH FOUNDATION INC., priority 2013, published 2017)

System: human prostate cancer PC-3 cells
Assay: Cytotoxic profile by MTT assay on human prostate cancer PC-3 cell line
Assay type: cell-based
Conditions: incubation time=48 h

Row | SMILES | IC50 (Homo sapiens) [µM] | IC50 [µM]
1 | CC(=O)Oc1ccccc1C(=O)O [Aspirin] | > 100 | –
2 | N.N.[Cl][Pt][Cl] [Cisplatin] | – | 14
